Source: patent publication US20220168261A1, “COMPOUNDS AND METHODS FOR MANAGING CANCER THROUGH IMMUNE SYSTEM” (AKAMARA THERAPEUTICS, INC., priority 2019, published 2022)

Assays:
CMTR2 [1] = target: T1, CMTR2 (Mus musculus, UniProt Q8BWQ4); assay: Binding of CMTR2 to Compound 1 by ELISA
T1 construct: endogenous in cells; host or cells: 4T1 cells (lysate)
T1 sequence (Q8BWQ4 1-767): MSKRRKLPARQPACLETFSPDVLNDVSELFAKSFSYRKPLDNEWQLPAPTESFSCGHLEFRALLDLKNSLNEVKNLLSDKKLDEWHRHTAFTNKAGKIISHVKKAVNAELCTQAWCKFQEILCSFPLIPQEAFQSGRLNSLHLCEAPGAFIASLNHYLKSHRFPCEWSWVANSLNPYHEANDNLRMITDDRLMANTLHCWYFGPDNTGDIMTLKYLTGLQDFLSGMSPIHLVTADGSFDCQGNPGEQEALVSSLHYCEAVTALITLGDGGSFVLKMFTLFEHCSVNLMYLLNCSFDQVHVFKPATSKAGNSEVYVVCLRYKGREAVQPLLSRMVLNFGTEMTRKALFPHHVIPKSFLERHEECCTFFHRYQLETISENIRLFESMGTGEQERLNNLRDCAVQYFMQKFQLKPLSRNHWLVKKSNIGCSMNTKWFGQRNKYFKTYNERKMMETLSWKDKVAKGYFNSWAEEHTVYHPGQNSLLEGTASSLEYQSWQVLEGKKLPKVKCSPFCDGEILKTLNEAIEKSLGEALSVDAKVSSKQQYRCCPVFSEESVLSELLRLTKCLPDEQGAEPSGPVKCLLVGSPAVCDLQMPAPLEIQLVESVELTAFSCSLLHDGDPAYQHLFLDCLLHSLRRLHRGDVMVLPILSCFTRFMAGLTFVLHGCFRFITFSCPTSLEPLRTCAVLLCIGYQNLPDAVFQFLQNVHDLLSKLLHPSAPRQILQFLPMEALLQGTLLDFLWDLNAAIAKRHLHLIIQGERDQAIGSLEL
Source text: (§1) Cap-specific mRNA (nucleoside-2′-O-)-methyltransferase 2 (CMTR2) is an enzyme that methylates at the 2′-O position of the second transcribed nucleotide of mRNAs.

4T1 cells [2] = assay: Intracellular distribution of platinum and intact drug in 4T1 cells (AAS, RPHPLC); type: cell-based; conditions: 50 μM
Experimental: The remaining insoluble proteins were resuspended in RIPA lysis buffer. The leftover genomic DNA (gDNA) pellet was treated with methanol to dissociate any non-covalently bound platinum from the gDNA. All the fractions were assayed by atomic absorption spectroscopy (AAS) to determine their Pt content. […] Data was generated from three independent biological experiments and error represents standard error of mean.

CMTR2 [3] = target: T1, CMTR2; assay: Proteomics target identification (anti-cholesterol IP and chemical pulldown) from 4T1 lysate; type: binding
Experimental: as §1
In this example, two different proteomics approach were used to identify the target of Compound 1: (i) an anti-drug antibody (binds to cholesterol in Compound 1) and (ii) Compound A-1, where both (i) and (ii) were used to precipitate targets from 4T1 lysates. The 4T1 cell lysate was treated with pegylated Compound 1 for 20 hours. The 4T1 cells lysate was, independently, combined with the proteins of Table A or treated with Compound 1 and then combined with the proteins of Table A. Precipitated proteins were digested into peptides and identified using LC-MS/MS. Table A provides a summary of the proteins identified from both approaches that were enriched in Compound 1 samples above the background.

4T1 tumors = assay: 4T1 breast tumors in mice in vivo; parameters: species or system BALB/c mice
[4] = Pharmacokinetics after single i.v. bolus in tumor bearing mice; type: in vivo, female Balb/c mice; conditions: plasma, LC-MS/MS, noncompartmental analysis
Experimental: The pharmacokinetic (PK) profile of Compound 1 was evaluated following single intravenous (i.v bolus) dosing in tumor bearing female Balb/c mice. Tumor and plasma samples were collected at various time points, sparse sampling (n=3). Plasma concentrations were determined using LC-MS/MS and later subjected to Phoenix WinNonlin Noncompartmental analysis and PK parameters were estimated.

Lewis lung carcinoma = assay: Immunocompetent Lewis lung carcinoma model; type: in vivo, mice
Source text: This model was therefore used to test whether the activation of both T cells, using a PD1 inhibitor, and B cells, using Compound 1, results in synergy. In this experiment, four groups of mice models for immunocompetent Lewis lung carcinoma were utilized. The mice were, independently, intravenously treated with control, Compound 1, anti-PD-1, or Compound 1+ anti-PD-1 and tumor growth monitored for at least 28 days post-tumor induction. The following table describes the treatments utilized in the experiment.

[5] = Single dose toxicity study in rats; type: in vivo; conditions: for ALP (Hepatic), Mean / ALT (Hepatic), Mean / AST (Hepatic), Mean / Creatinine (Renal), Mean / Hemoglobin (Anemia), Mean / Neutrophil (Neutropenia), Mean / Platelet (Thrombocytopenia), Mean: rat, in vivo
Experimental: Further, Compound 1 was also tested for safety end point evaluation in rats. […] Doses of 44 mg/kg, 88 mg/kg and 176 mg/kg were tested and 176 mg/kg was LTD.

4T1 cells [6] = assay: Interferon pathway / anti-viral response in 4T1 cells (RT-q-PCR, iBlot); type: cell-based
Experimental: RT-q-PCR was performed with RNA extracted from 4T1 cells treated with 30 μM of Compound 1 or vehicle for 24 h. […] The result is representative of n=3.
See, FIG. 16. The unmethylated mRNA generated due to inhibition of CMTR2 activity leads to recognition by sensors like MDA5 and TLR3 in conjunction with adapters like TRIF.

4T1 cells [7] = assay: CMTR2 levels in 4T1 cells upon treatment; type: cell-based
Source text: as §1
Alternatively, the unmethylated mRNA could also be recognized by toll-like receptors (TLR) like TLR3. Both of these would trigger many interferon regulatory factors (IRFs) leading to a type-I interferon antiviral response. The interferons can induce interferon stimulated genes (ISGs) such as interferon induced tetratricopeptide repeat protein 1 (IFIT1), which binds to unmethylated mRNA with high affinity. Furthermore, the immune system would be activated by the interferons. Additionally, the unmethylated mRNA could be secreted out from the tumor cells resulting in B-cell activation.

[8] = tumors regressed by 20% on day three

## CC(C)CCC[C@@H](C)[C@H]1CCC2C3CC=C4C[C@@H](OCCN(CC(=O)[O-])CC(=O)[O][Pt+]5[NH][C@@H]6CCCC[C@H]6[NH]5)CC[C@]4(C)C3CC[C@@]21C (stereo partly drawn) [Compound 1]
CMTR2 [1]
  Binding of CMTR2 by ELISA: confirmed by ELISA
4T1 cells [2]
  Intracellular integrity (intact concentration by RPHPLC vs platinum by AAS): remains intact intracellularly
CMTR2 [3]; LC-MS/MS of proteins precipitated from 4T1 lysates
  False discovery rate of CMTR2 as lead putative target: less than 1%
CMTR2 [3]; anti-cholesterol IP and chemical pulldown, 4T1 cell lysate
  Binding to CMTR2 by proteomics: binds to CMTR2
4T1 tumors; 88 mg/kg, 2 cycles, T and B-cell knockout (SCID) mice, FIG. 26
  4T1 tumor ablation in mice lacking B cells: 4T1 tumor ablation does not happen in mice lacking B cells
4T1 tumors; 88 mg/kg, 2 cycles, animals with previous tumor regression, FIG. 27
  Tumor growth following re-implantation of cancer cells: No tumor growth occurs
4T1 tumors; 4T1 breast cancer-bearing mice, FIG. 10
  Tumor growth inhibition with increasing doses: clear dose-dependent effect
4T1 tumors; 50% regressed tumors
  Infiltrating immune cells in tumor sections (immunohistology): increased IGKC levels, and increased infiltration of memory B cells (CD20+) and plasma B cells (CD138)
4T1 tumors; FIGS. 8B to 8E
  B cell biomarker transcripts IGKC and CD21 in tumor (RTPCR): increase in IGKC and CD21
  CD8a in tumor (RTPCR): increase in CD8a cells
4T1 tumors; administered on days 1, 2, 6, and 7, female Balb/c mice
  4T1 tumor growth: ablated 4T1 tumors
4T1 tumors; administered on days 1, 2, 6, and 7, up to 29 days post-implantation
  Body weight: without any loss in body weight
4T1 tumors; cumulative dose of 176 mg/kg per cycle, 2 cycles, immunocompetent syngeneic BALB/c mice
  Tumor size of established 4T1 tumors: tumor regression is observed
4T1 tumors; day 3
  % B-cell in tumor by FACS: infiltrating the tumor
4T1 tumors; days 3, 4, 5, and 8
  IFIT1 levels in plasma (dot-blot): elevated on days 3 to 8
  INF-α levels in plasma (dot-blot): elevated in plasma
4T1 tumors; post-regression, spleen following rechallenge
  B cell phenotype by FACS in draining lymph node and spleen: increase in B cells with a reduction in Bregs
4T1 tumors; reinjected with 4T1 cells twenty-five days post-regression, no additional treatment
  Tumor growth post rechallenge with cancer cells (immune memory): absence of any tumor growth
4T1 tumors; [8]
  IFN gene expression in 4T1 tumors: robust increase in expression
  IRF3 and IRF7 gene expression in 4T1 tumors: increased expression is observed for IRF3 and IRF7
[4]
  Estimated AUC versus dose: increased linearly with dose
Lewis lung carcinoma; different dose regimens, compared with a MTD dose of oxaliplatin
  Tumor growth: significant tumor growth inhibition
Lewis lung carcinoma; mouse, in vivo
  CD8a levels (immuno-transcripts): no increase was seen in CD8a levels
  Combination effect with PD1 immune checkpoint inhibitor: synergizes with PD1 immune checkpoint inhibitor
  IGKC signal (immuno-transcripts): increase in IGKC signal
[5]; 44 mg/kg and 88 mg/kg, single intravenous infusion (30 min)
  Tolerability of the remaining doses: well tolerated without any significant clinical signs
[5]; 44 mg/kg
  ALP (Hepatic), Mean: 107.60 U/L
  ALT (Hepatic), Mean: 30.00 U/L
  AST (Hepatic), Mean: 110.60 U/L
  Creatinine (Renal), Mean: 0.49 mg/dL
  Hemoglobin (Anemia), Mean: 15.84 g/dL
  Neutrophil (Neutropenia), Mean: 0.72 × 10^3 cells/μL
  Platelet (Thrombocytopenia), Mean: 1201.2 × 10^3 cells/μL
[5]; 88 mg/kg
  ALP (Hepatic), Mean: 133.00 U/L
  ALT (Hepatic), Mean: 25.60 U/L
  AST (Hepatic), Mean: 106.00 U/L
  Creatinine (Renal), Mean: 0.49 mg/dL
  Hemoglobin (Anemia), Mean: 14.92 g/dL
  Neutrophil (Neutropenia), Mean: 0.80 × 10^3 cells/μL
  Platelet (Thrombocytopenia), Mean: 1376.2 × 10^3 cells/μL
[5]; 176 mg/kg
  ALP (Hepatic), Mean: 209.5 U/L
  ALT (Hepatic), Mean: 42.50 U/L
  AST (Hepatic), Mean: 141.50 U/L
  Creatinine (Renal), Mean: 0.52 mg/dL
[5]; single intravenous infusion (30 min), both genders
  LTD: 176 mg/kg
4T1 cells [6]; 30 μM, 24 h, RT-q-PCR, n=3
  mRNA expression of TLRs, IRF7 and IFN genes: robust increase in expression
4T1 cells [6]; iBlot, FIG. 19A-19B
  Secreted (extracellular) INF-α levels: remarkably high
4T1 cells [6]; iBlot, FIGS. 18A-18B
  Intracellular INF-α levels: significantly elevated
4T1 cells [6]; varying concentration, FIG. 16
  Innate anti-viral response (relative mRNA expression INF-α, IRF7, TRIF, TLR3): activation of the innate anti-viral response in a dose-dependent manner
4T1 cells [6]; varying concentrations, FIG. 17
  IRF7 levels: increased levels in 4T1 cells in a dose-dependent manner
4T1 cells [7]
  CMTR2 level in 4T1 cell lysate: dose-dependent upregulation of CMTR2
